Here are results for nine compounds from patent publication US20250339569A1, “CARBONIC ANHYDRASE IX LIGANDS” (priority 2021, published 2025).

Read-outs that look alike come from different tables or passages of the source. Starred links: 1 amine or outer side, 2 acyl side, 3 side chain; linkers in the order of their positions; H or OH if unused. Positions of bridges follow the written chain, without caps; N, C: chain ends. Non-standard residues stand in square brackets, D forms with d. Residues, ends and D or L forms follow the SMILES beside them. *: point of attachment. Phe(3-NHCO(CH2)3SO2NH2) = N[C@@H](Cc1cccc(NC(=O)CCCS(N)(=O)=O)c1)C(=O)O; NH(1-deoxy-D-glucityl) = OC[C@@H](O)[C@@H](O)[C@H](O)[C@@H](O)CN*; DOTA = O=C(O)CN1CCN(CC(=O)O)CCN(CC(=O)*)CCN(CC(=O)O)CC1; Phe(3-CF3) = N[C@@H](Cc1cccc(C(F)(F)F)c1)C(=O)O; X7 = O=C([C@H](Cc1cccc(N[*:3])c1)N[*:1])[*:2]; Nip(3R) = O=C([C@@H]1CCCN([*:1])C1)[*:2]; Phe(4-I) = N[C@@H](Cc1ccc(I)cc1)C(=O)O; mXylylene = c1cc(C[*:1])cc(C[*:2])c1; X36 = NS(=O)(=O)Cc1ccc(C(=O)*)cc1; X2 = O=C(CN1CCC(N[*:1])CC1)[*:2]; X41 = NS(=O)(=O)c1cccc(N*)c1; Dap = NC[C@H](N)C(=O)O; Inp = O=C(O)C1CCNCC1 A value given as a limit tells only on which side of the number the result lay.

For experiment [1], the target named is T1, human carbonic anhydrase IX (hCAIX-Fc) (Homo sapiens, UniProt Q16790).
T1 construct: purchased SinoBliological (Sino Biological) 10107-H02H
The experiment can be described thus: Surface plasmon resonance assay with hCAIX-Fc. The class given is binding. Particulars: 25° C.; for t1/2 category (activity): SPR dissociation half-life, hCAIX-Fc; for Kd: SPR, hCAIX-Fc captured, read-out: pKD category (activity) (converted). On the technique in general: In SPR one partner is held on a chip, and binding of the other changes the refractive index at the surface.

In experiment [2] the target is T2, CAIX-expressing human HT-29 colorectal cancer cells (Homo sapiens, UniProt Q16790).
T2 construct: CAIX-expressing human HT-29 colorectal cancer cells; host or cells: HT-29 human colorectal cancer cells
The experiment in a line: FACS binding assay (IC50 determination, competition with tracer 3BP-2776 or 3BP-4149). Particulars: 4° C., 1 hour, read-out: pIC50 category (activity) (converted). The procedure, abridged:
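HT-29 cells in FACS buffer (PBS, 1% FCS) at 500.000 cells/ml were exposed to compounds competing with a labelled tracer, with biotinylated compounds detected by 1 μg/mL APC-streptavidin for 30 min on ice. APC/Cy5 median fluorescence was read by flow cytometry and IC50 derived by 4PL fit.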
Background: In flow cytometry, cells or beads pass a laser one at a time.

The mark [3] stands for this setting: FACS binding assay, HT-29 cells, competition with tracer 3BP-2776 (10 nM, biotin-labeled).
[4] abbreviates: FACS binding assay, HT-29 cells, competition with tracer 3BP-4149 (3 nM, Cy5-labeled).

`CC(C)C[C@@H]1NC(=O)[C@H](Cc2c[nH]c3ccccc23)NC(=O)[C@H](CC(=O)O)NC(=O)[C@H]2CCCN2C(=O)[C@H](CCC(=O)O)NC(=O)[C@@H](NC(=O)[C@H](Cc2ccc(O)cc2)NC(=O)[C@@H](NC(=O)CN2CCC(NC(=O)CN3CCN(CC(=O)O)CCN(CC(=O)O)CCN(CC(=O)O)CC3)CC2)C(C)C)CSCc2cccc(c2)CSC[C@@H](C(N)=O)NC(=O)[C@H](CO)NC(=O)[C@H](Cc2c[nH]c3ccccc23)NC(=O)[C@H](CCC(=O)NC[C@H](O)[C@@H](O)[C@H](O)[C@H](O)CO)NC1=O` [3BP-4121] ({DOTA}-[X2]VYCE[dP]DWLE(NH(1-deoxy-D-glucityl))WSC-NH2; linker 4-13 via mXylylene): in experiment [1], the “t1/2 category (activity)” value was “A (t1/2>15.0 minutes)” and the Kd is less than 10 nM. The IC50 in experiment [2] (setting [3]) is less than 10 nM.
With `CC(C)C[C@@H]1NC(=O)[C@H](Cc2cccc(C(F)(F)F)c2)NC(=O)[C@H](CC(=O)O)NC(=O)[C@H]2CCCN2C(=O)[C@H](CCC(=O)O)NC(=O)[C@@H]2CSCc3cccc(c3)CSC[C@@H](C(N)=O)NC(=O)[C@H](CNC(=O)C[C@H](NC(=O)[C@@H](NC(=O)CN3CCC(NC(=O)CN4CCN(CC(=O)O)CCN(CC(=O)O)CCN(CC(=O)O)CC4)CC3)C(C)C)C(=O)N2)NC(=O)[C@H](Cc2c[nH]c3ccccc23)NC(=O)[C@H]([C@@H](C)O)NC1=O` [3BP-4440] ({DOTA}-[X2]VDCE[dP]D[Phe(3-CF3)]LTW[Dap]C-NH2; lactam 3-12; linker 4-13 via mXylylene), in experiment [1], the “t1/2 category (activity)” value is “B (t1/2 between 5.1 and 15.0 minutes)”; the Kd is less than 10 nM. The IC50 in experiment [2] (setting [4]) is less than 10 nM.
On to `CC(C)C[C@@H]1NC(=O)[C@H](Cc2c[nH]c3ccccc23)NC(=O)[C@H](CC(=O)O)NC(=O)[C@H]2CCCN2C(=O)[C@H](CCC(=O)O)NC(=O)[C@@H](NC(=O)CN2CCC(NC(=O)CN3CCN(CC(=O)O)CCN(CC(=O)O)CCN(CC(=O)O)CC3)CC2)CSCc2cccc(c2)CSC[C@@H](C(N)=O)NC(=O)[C@H](CO)NC(=O)[C@H](Cc2c[nH]c3ccccc23)NC(=O)[C@H]([C@@H](C)O)NC1=O` [3BP-3858] ({DOTA}-[X2]CE[dP]DWLTWSC-NH2; linker 2-11 via mXylylene), for which, in experiment [1], the “t1/2 category (activity)” value was “D (t1/2≤2.0 minutes)” and the Kd was less than 10 nM. The IC50 in experiment [2] (FACS competition on HT-29 cells, Tracer ID 3BP-2776 (10 nM, biotin-labeled)) is less than 10 nM.
As to `CC(C)C[C@@H]1NC(=O)[C@H](Cc2cccc(NC(=O)CCCS(N)(=O)=O)c2)NC(=O)[C@H](CC(=O)O)NC(=O)[C@H]2CCCN2C(=O)[C@H](CCC(=O)O)NC(=O)[C@@H](NC(=O)[C@H](Cc2ccc(O)cc2)NC(=O)[C@@H]2CCCN(C(=O)CN3CCN(CC(=O)O)CCN(CC(=O)O)CCN(CC(=O)O)CC3)C2)CSCc2cccc(c2)CSC[C@@H](C(N)=O)NC(=O)[C@H](CO)NC(=O)[C@H](Cc2c[nH]c3ccccc23)NC(=O)[C@H]([C@@H](C)O)NC1=O` [3BP-4455] ({DOTA}-[Nip(3R)]YCE[dP]D[Phe(3-NHCO(CH2)3SO2NH2)]LTWSC-NH2; linker 3-12 via mXylylene), in experiment [1], the “t1/2 category (activity)” value was “A (t1/2>15.0 minutes)” and the Kd is less than 10 nM. The IC50 in experiment [2] (setting [3]) is less than 10 nM.
With `CC(C)C[C@@H]1NC(=O)[C@H](Cc2c[nH]c3ccccc23)NC(=O)[C@H](CC(=O)O)NC(=O)[C@H]2CCCN2C(=O)[C@H](CCC(=O)O)NC(=O)[C@@H]2CSCc3cccc(c3)CSC[C@@H](C(N)=O)NC(=O)[C@H](CNC(=O)C[C@H](NC(=O)C3CCN(C(=O)CN4CCN(CC(=O)O)CCN(CC(=O)O)CCN(CC(=O)O)CC4)CC3)C(=O)N2)NC(=O)[C@H](Cc2c[nH]c3ccccc23)NC(=O)[C@H]([C@@H](C)O)NC1=O` [3BP-4256] ({DOTA-Inp}-DCE[dP]DWLTW[Dap]C-NH2; lactam 1-10; linker 2-11 via mXylylene), in experiment [1], the “t1/2 category (activity)” value was “C (t1/2 between 2.1 and 5.0 minutes)”; the Kd was less than 10 nM. Also, in experiment [2] (setting [3]), the IC50 was less than 10 nM.
On to `CC(C)C[C@@H]1NC(=O)[C@H](Cc2c[nH]c3ccccc23)NC(=O)[C@H](CCC(=O)Nc2cccc(S(N)(=O)=O)c2)NC(=O)[C@H]2CCCN2C(=O)[C@H](CCC(=O)O)NC(=O)[C@@H](NC(=O)[C@H](Cc2ccc(O)cc2)NC(=O)[C@@H](NC(=O)CN2CCC(NC(=O)CN3CCN(CC(=O)O)CCN(CC(=O)O)CCN(CC(=O)O)CC3)CC2)C(C)C)CSCc2cccc(c2)CSC[C@@H](C(N)=O)NC(=O)[C@H](CO)NC(=O)[C@H](Cc2c[nH]c3ccccc23)NC(=O)[C@H]([C@@H](C)O)NC1=O` [3BP-4441] ({DOTA}-[X2]VYCE[dP]E(X41)WLTWSC-NH2; linker 4-13 via mXylylene), for which, in experiment [1], the “t1/2 category (activity)” value is recorded as “A (t1/2>15.0 minutes)” and the Kd was less than 10 nM. For the same compound, the IC50 in experiment [2] (setting [4]) was 10 to 79.4 nM.
As for `CC(C)C[C@@H]1NC(=O)[C@H](Cc2cccc(NC(=O)c3ccc(CS(N)(=O)=O)cc3)c2)NC(=O)[C@H](CC(=O)O)NC(=O)[C@H]2CCCN2C(=O)[C@H](CCC(=O)O)NC(=O)[C@@H](NC(=O)[C@H](Cc2ccc(O)cc2)NC(=O)[C@@H](NC(=O)CN2CCC(NC(=O)CN3CCN(CC(=O)O)CCN(CC(=O)O)CCN(CC(=O)O)CC3)CC2)C(C)C)CSCc2cccc(c2)CSC[C@@H](C(N)=O)NC(=O)[C@H](CO)NC(=O)[C@H](Cc2c[nH]c3ccccc23)NC(=O)[C@H]([C@@H](C)O)NC1=O` [3BP-4406] ({DOTA}-[X2]VYCE[dP]D[X7](X36)LTWSC-NH2; linker 4-13 via mXylylene), in experiment [1], the “t1/2 category (activity)” value is “A (t1/2>15.0 minutes)” and the Kd is less than 10 nM. In addition, in experiment [2] (setting [4]), the IC50 is less than 10 nM.
As to `CC(C)C[C@@H]1NC(=O)[C@H](Cc2cccc(NC(=O)CCCS(N)(=O)=O)c2)NC(=O)[C@H](CC(=O)O)NC(=O)[C@H]2CCCN2C(=O)[C@H](CCC(=O)O)NC(=O)[C@@H]2CSCc3cccc(c3)CSC[C@@H](C(N)=O)NC(=O)[C@H](CNC(=O)C[C@H](NC(=O)[C@@H](NC(=O)CN3CCC(NC(=O)CN4CCN(CC(=O)O)CCN(CC(=O)O)CCN(CC(=O)O)CC4)CC3)C(C)C)C(=O)N2)NC(=O)[C@H](Cc2c[nH]c3ccccc23)NC(=O)[C@H]([C@@H](C)O)NC1=O` [3BP-4445] ({DOTA}-[X2]VDCE[dP]D[Phe(3-NHCO(CH2)3SO2NH2)]LTW[Dap]C-NH2; lactam 3-12; linker 4-13 via mXylylene), in experiment [1], the “t1/2 category (activity)” value is “A (t1/2>15.0 minutes)” and the Kd was less than 10 nM. Further, the IC50 in experiment [2] (setting [4]) was less than 10 nM.
Turning to `CC(C)C[C@@H]1NC(=O)[C@H](Cc2ccc(I)cc2)NC(=O)[C@H](CC(=O)O)NC(=O)[C@H]2CCCN2C(=O)[C@H](CCC(=O)O)NC(=O)[C@@H](NC(=O)[C@H](Cc2ccc(O)cc2)NC(=O)[C@@H](NC(=O)CN2CCC(NC(=O)CN3CCN(CC(=O)O)CCN(CC(=O)O)CCN(CC(=O)O)CC3)CC2)C(C)C)CSCc2cccc(c2)CSC[C@@H](C(N)=O)NC(=O)[C@H](CO)NC(=O)[C@H](Cc2c[nH]c3ccccc23)NC(=O)[C@H]([C@@H](C)O)NC1=O` [3BP-4134] ({DOTA}-[X2]VYCE[dP]D[Phe(4-I)]LTWSC-NH2; linker 4-13 via mXylylene), in experiment [1], the “t1/2 category (activity)” value is “C (t1/2 between 2.1 and 5.0 minutes)”; the Kd is less than 10 nM. For the same compound, in experiment [2] (setting [3]), the IC50 is less than 10 nM.
